Laboratory results: paper PMC5428881 (Chemical communications (Cambridge, England), 2011)

Test system: HeLa cells
Experiment: Cell permeability by fluorescence activated cell sorting
Assay type: cell-based
Conditions: FACS, 10 μM N-terminally fluorescein-conjugated peptide, 2 versus 1

increase in mean fluorescence (cell permeability): 2.5 fold
Sequence: LTFCRYWARLCS [compound 2]
